Key:
ob/ob mice [1] = assay: Pathologic analysis of pancreas, liver and muscle of ob/ob mice; type: in vivo; settings: vs PBS
Procedure: The liver, pancreas, and muscle were removed from control or treated mice and placed in 4% formalin followed by paraffin embedding. Five sections were prepared from each organ. The tissues were stained for heamtoxylin eosin and liver sections were additionally stained with oil-red-o. All sections were blindly scored by a pathologist.
The inventors next investigated the beneficial effect of the combined oral composition of anti-CD3 plus GC treatment of ob/ob mice by pathologic analysis of pancreas, liver and muscle. […] In addition, a reversal of muscle fiber thinning and increased nuclei was clearly observed in animals treated with the oral combination of anti-CD3 plus GC.

ob/ob mice [2] = assay: Metabolic syndrome model in ob/ob mice: serum glucose, AST, ALT, cholesterol, weight after oral feeding; type: in vivo
Procedure: Mice were fed a total volume of 0.2 ml by gastric intubation with an 18-gauge stainless steel feeding needle (Thomas Scientific). Mice were fed once a day for five consecutive days with either phosphate-buffered saline (PBS), hamster isotype control (IC 5 μg/feeding), anti CD3 antibody (5 ug/feeding), or β-glucosylceramide (GC), 100 μg/feeding (dissolved in ethanol and emulsified in PBS). Mice fed with the combination of anti-CD3 and GC received 5 ug anti-CD3 and 100 ug GC in 0.2 ml PBS. Mice were injected IP with 100 μg anti TGF-β one day before the feeding and than on alternative days another 4 injections, a total of 500 μg.
Sera from individual mice were obtained. Serum AST and ALT levels were measured by an automatic analyzer.
In order to investigate the potential effect of combining two different immune-modulatory compounds on an immune-related disorder such as the metabolic syndrome, the ob/ob leptin deficient mice that manifest insulin resistance, hypelipidemia, fatty liver, and diabetes, were used as an animal model.
Four groups of ob/ob mice were tested, groups 1 and 2 served as control groups (group of untreated mice and group of mice treated with GC and Isotype Control, respectively), group 3 were treated with anti CD3 (5 microgram) antibody and group 4 were orally administered with a combination of anti-CD3 (5 μg) antibody and β-glucosylceramide (GC, 100 μg) per dose for five consecutive days. Animals were assessed on days 10 and 28. The doses studied were based on previous studies of anti-CD3 and GC in animal models [Ochi, H., et al. Nat. Med. 12:627-635 (2006); Zigmond, E. et al. Gut 56:82-89 (2007); Ilan, Y. et al. Transplantation 83:458-467 (2007)]. Determination of hepatic fat content and inflammation was performed by measurement of serum Alanine aminotransferase (ALT) and Aspartate aminotransferase (AST) levels. Serum glucose and cholesterol levels were also assessed.

DCs from MLN = assay: TGF-β and IL-10 expression in CD11C+ DCs from MLN by RT PCR; type: in vivo, mice; settings: RT PCR relative to GAPDH; 3 days after feeding; reversed by anti-TGF-β
Procedure: MLN CD11C+ DCs were isolated by magnetic separation using anti CD11C microbeads (Miltenyi Biotec). Total RNA was isolated from cell pellets using the RNA easy Mini Kit (QIAGEN) and stored at −80° C. First strand cDNA synthesis was performed on 0.5-1 μg of total RNA for each RNA sample using Taqman reverse transcription reagents. The cDNA was amplified using sequence specific primers for IL-10, and TGF-β and real-time PCR mix (Applied Biosystems) in an ABI7500 cycler. The GAPDH gene was used as an endogenous control to normalize for differences in the amount of total RNA in each sample. All values were expressed as a fold increase or decrease relative to the expression of GAPDH.
To investigate the effect of feeding the anti-CD3 plus GC combination on DCs, the inventors first measured the expression of TGF-β and IL-10 in DCs from MLN. […] Injection of anti-TGF-β reversed the effect. The inventors then investigated the effect of DCs obtained from animals treated with the oral combination of anti-CD3 plus GC, or from the control PBS treated animals, on T-cells harvested from mice fed either with PBS or with the combination of anti-CD3 plus GC. T cells were stimulated with anti-CD3 in vitro. […]

MLN cells = assay: Cytokine production (ELISA) by MLN cells or splenocytes of fed ob/ob mice stimulated in vitro with anti-CD3; type: in vivo; settings: in vitro 1 μg/ml anti-CD3 stimulation; vs PBS
Procedure: For cytokine assays, splenocytes or MLN cells were grown (10^6 cells per well) in serum-free medium X-VIVO 20 (BioWhittaker) with 1 ug/ml soluble anti-CD3 antibody. Supernatants were collected after 40 h for IL-2, IL-4, IL6, IL-10, IFN-γ, and IL-17, or after 72 h for TGF-β and quantitative ELISA was performed using paired antibodies and recombinant cytokines obtained from PharMingen according to their recommendations. When purified T-cells ([…] cells per well) were checked for cytokine secretion, they were stimulated with 1 ug/ml anti-CD3 in the presence of DCs (10×10^3 cells per well) for 40 or 72 h and the cytokine content in the supernatant was measured as outlined above. The tissue cytokine profile was determined for gut, liver, and pancreas. Part of the organ was weighed and homogenized on ice with TISSUEMISER (Fisher Scientific) in buffer containing PBS/BSA/TWEEN and protein inhibitor tablets (Roche). […]
To investigate the potential mechanisms by which oral combination of anti-CD3 plus GC affected the metabolic abnormalities describe above, the inventors next measured cytokine production by MLN cells obtained from the different experimental groups, that were then stimulated in vitro with 1 μg/ml anti-CD3 for five days. […] The inventors next measured cytokine levels in supernatants from homogenized tissues from ob/ob treated mice. […]

In the case of β-glucosylceramide [GC], the hepatic fat accumulation (ob/ob mice [1]) is reported as “some effect”, the pancreatic hyperplasia (ob/ob mice [1]) is reported as “some effect” and the weight of animals (ob/ob mice [2]; compared to control) is reported as “No change”. The “serum AST levels” value (ob/ob mice [2]; ob/ob mice fed daily for 5 days, 10 days after last feeding, PBS 416 U/l) was 310 U/l, the Serum cholesterol levels (ob/ob mice [2]; ob/ob mice fed daily for 5 days, PBS 218 mg %) was 225 mg % and the blood glucose (ob/ob mice [2]; ob/ob mice fed daily for 5 days, tested 10 days after last feeding, PBS 367 mg %) was 337 mg %. For the same substance, the “IL-10 expression in DCs from MLN” value (DCs from MLN) was “not”, the “TGF-β expression in DCs from MLN” value (DCs from MLN) was “not” and the “production of IL-10 by MLN cells” value (MLN cells) was “No effects”. The “production of TGF-β by MLN cells” value (MLN cells) was “No effects”.

From US9981037B2, “Combination therapy of beta-glycolipids and antibodies for the treatment of immune-related disorders” (HADASIT MEDICAL RESEARCH SERVICES AND DEVELOPMENT LTD., priority 2008, dated 2018)
